SMILES strings stand for the structures.

Data set [1] deals with rectal temperature, dry yeast-induced fever. The experiment in a line: Antipyretic activity in the rat (dry yeast fever). The data set is classed as in vivo, rat (albino Wistar female). Conditions: for Antipyretic activity: rat, oral, temperature index over 4-25 h, relative activity, p-aminophenol taken equal to 100. The method, then:
Method for studying the antipyretic activity in the rat.
Albino Wistar female rats, weighing 100-140g, are utilized. The animals having a rectal, basal temperature from 36° to 37° C. are selected.
The test substances are administered by oral way contemporaneously with the pyretic agent (dry yeast, suspended in water at the 20% concentration; volume administered 15 ml/kg subcutaneously) at groups of 5 animals per dose.
After 4,5,6,7 and 25 hours from the treatment, the rectal temperature of the animals is measured by an Ellab RM6 probe, connected to an Ellab mod. TE-3 thermometer.
The activity of the drugs is evaluated by utilizing a temperature index which is provided by the algebraic sum of the differences in the rectal temperature between the measure values at the various times and the basal value.

The test system of data set [2] is bronchial secretion (mucoproduction). The experiment in a line: Bronchosecretagogue activity (mucoproduction) in the rabbit. The class given is in vivo, rabbit (male brown). The note with it: oral, relative activity, d,l-trans-sobrerol taken equal to 100. How it is done:
Method of mucoproduction in the rabbit according to Scuri R. et al Boll. Chem. Farm.
Male brown rabbits weighing 2.8-3.5 kg are used. To said animals, by a surgical operation under anaesthesia, a T shaped tracheal cannula is applied, as described in the above bibliographic reference.
To the cannula, a container (a polypropylene 2 ml test tube) is applied for periodical collection of the bronchial secretion. The study of mucoproduction, started at the fourth day after the operation, is divided into two 4 hour periods for collecting and measuring the mucus, and precisely from 8:30 to 12:30 (I), and from 12:30 to 16:30 (II).
The activity of each drug is tested by administering the same by oesophageal way (os) at the beginning of the II period and by evaluating the percent increase of mucoproduction (weight of the mucus as collected) in the II period as compared with the I period.

Data set [3] in a line: Pharmacokinetics: plasma levels in the rat after oral administration (HPLC). Conditions: Wistar rats, fasted, 400 mg/kg oral single administration, 0.5-6 h. The class given is in vivo. The method, then:
For this study, two groups of Wistar rats (170 280 g), fasting about 15 hours before treatment, are utilized. The animals were allowed to drink an aqueous 10% glucose solution. To the rats, the compound of formula I, by oral way (transoesophageal intubation) is administered at the dose of 400 mg/kg (a single administration) and at 0.5 h; 1 h; 1.5 h; 2 h; 3 h; 4 h; 6 h from administration, 5 rats/time are sacrificed. The blood, as collected into test tubes containing sodium heparin, is centrifuged and the plasma so obtained is utilized for quantitative analysis of the compound of formula (I) of the invention by means of high pressure liquid chromatography (HPLC) with an U.V. detector.

The nature of another data set: in vivo. The note with it: mouse, po. From the text: Method of studying LD50 in the mouse after a single oral administration.
Thereafter, the animals are fed again (Morini MIL fodder for mice).

The subject of data set [4] is bronchial mucus of bronchitic rabbits. Description: Fluidizing "in vivo" activity: viscosity of bronchial mucus of bronchitic rabbits. Details: species or system rabbit (male, bronchitic by sulphuric acid aerosol). The note with it: for Fluidizing "in vivo" activity of bronchial mucus: bronchitic rabbits, oral, relative activity, d,l-trans-sobrerol taken equal to 100. The method, then: The viscosity of the mucus as withdrawn is studied by using a Contraves RM16 microviscosimeter and it is recorded by a Rheomat 15 T-FC apparatus.

In data set [1], `CC1=CC[C@H](C(C)(C)O)C[C@H]1OC(=O)CCC(=O)Nc1ccc(O)cc1` (relative stereo) [CO/1499, 5-[3-N-[(4-hydroxyphenyl)carboxamido]-1-oxo-propxy]-α,α-4-trimethyl-3-cyclohexene-1-methanol] registered an Antipyretic activity of 127. Further, in data set [1] (statement in words), the “antipyretic activity compared with paracetamol or any drug of the same therapeutical class” value is listed as “equivalent of a dose of either paracetamol or any drug of the same therapeutical class”. The same compound gave a Bronchosecretagogue activity in data set [2] of 131. Moreover, in data set [3], the “absorption (course of the plasmatic levels)” value is “quick and good absorption”. In “in vivo”, this compound returned an LD50 at 336 h of 2070 mg/kg. Moreover, in data set [4], the “Fluidizing "in vivo" activity of bronchial mucus” value (shortened to “Fluidizing "in vivo" activity”) was found to be 120. Besides, in data set [4] (statement in words, versus activity ascribed to the d,l-trans-sobrerol moiety), the mucosecretolytic-fluidizing activity entry is “potency increase”.

The compound `CC1=CC[C@H](C(C)(C)O)C[C@H]1O` (relative stereo) [d,l-trans-sobrerol] returned an Antipyretic activity in data set [1] of 0. Further, in data set [2], the Bronchosecretagogue activity stood at 100. Further, the LD50 at 336 h in “in vivo” was determined as 2340 mg/kg. Besides, in data set [4], the “Fluidizing "in vivo" activity” value amounted to 100.

Take `Nc1ccc(O)cc1` [p-aminophenol]: the Antipyretic activity in data set [1] is listed as 100. In data set [2], this compound returned a Bronchosecretagogue activity of 0. For the same compound, in data set [4], the “Fluidizing "in vivo" activity” value was 0.

Source of the values: patent US4596824A, “p-Aminophenol with mucosecretolytic-fluidizing and antipyretic activity, a process for its preparation and pharmaceutical compositions thereof” (Camillo Corvi S.p.A., priority 1984, dated 1986).
